Reference: patent US10081615B2, “Sulfamate derivative compounds for use in treating or alleviating pain” (Bio-Pharm Solutions Co., Ltd., priority 2013, dated 2018)
Where two headings read alike, the source gives them in different places.

Legend:
[1] = tested on: acetic acid-induced writhes; assay: Writhing test (acetic acid); format: in vivo, ICR mice; conditions: mouse, oral
Description: To examine the pain relief effect of the sulfamate derivative compounds, a writhing test was referring to Fischer, L. G. et al. (2008).
ICR mice (male, 24-28 g; Orient Bio, Korea) were habituated before test in test room for 1 hour. Animals were fasted for 2 hr before administration of compounds. […] All compounds were dissolved in a vehicle of 30% (v/v) PEG 400 or 20% (v/v) Tween 80. The control group was treated with the vehicle without compounds.
[…] Animals were habituated in the cage for 5 min. 5 min after habituation, the number of writhes (abdominal constriction) was counted for 15 minutes referring to Korzeniewska-Rybicka, I. et al. (1998) and compared with that of the control.

[2] = tested on: SNL model; assay: Antiallodynic activity in the Chung model (SNL, Spinal Nerve Ligation; von Frey); format: in vivo, Sprague-Dawley rats
Description: Male Sprague-Dawley rats (200-220 g, Orient Bio, Korea) were habituated for 1 week before the experiment and allowed free access to food and water throughout the experimentation. Room temperature and humidity were maintained at 24±2° C. and 50±10%, respectively. The neuropathic surgery (SNL, Spinal Nerve Ligation) model was done as described in Kim and Chung (1992). Briefly, an animal was put under gaseous anesthesia with isoflurane and NO2 with a 4:4 flow ratio. The left lumbar spinal nerves L5 and L6 were isolated and tightly ligated with 4-0 silk thread. The wound was treated with a gentamicin antibiotic solution (4 mg/kg, 4 ul/g by bodyweight), and the wound muscle was closed with Catgut® chrome 4/0 thread and the skin was closed with Dafilon 4/0 thread. Sham controls were prepared in the same manner with the spinal nerves were exposed, but no ligated L5 and L6 nerves. Preparation of the vehicle controls were identical to the group treated with compound, except for administration of vehicles without compound in the vehicle control group.
Tactile sensitivity (mechanical allodynia) was evaluated using von Frey monofilaments before and after treatment and animals the animals were included in the study only if the withdrawal threshold value was less than 4 g. One week after surgery, SNL-operated animals (n=4˜6), sham-operated animals (n=4˜10) and vehicle-operated animals (n=4˜13) were tested for tactile sensitivity with von Frey monofilaments with 3 trials in each animal. All animals were placed in a stainless steel mesh chamber and habituated for 30 min in the test cage. The tactile sensitivity for ipsilateral hind paw was measured using the up-and-down method (Dixon, 1980) with seven von Frey monofilaments (0.4, 1, 2, 4, 6, 8, and 15 g) in 3 trials. The tactile sensitivity test was followed by Dixon's method (Dixon, 1980). The 50% paw withdrawal threshold for each paw was calculated using the following formula: [Xth] log=[vFr] log+ky where [vFr] is the force of the last von Frey used, k=0.2249 which is the average interval (in log units) between the von Frey monofilaments, and y is a value that depends upon the pattern of withdrawal responses (Dixon, 1980).
All animals were fasted for 18 h before the administration of the compounds. The antiallodynic effect of the compounds were evaluated at the various doses (n=5˜6), orally administered in a volume of 5 ul/g by bodyweight in a vehicle of 30% (v/v) PEG 400 (Example 7) or 20% (v/v) Tween 80 (Examples 5 and 6) or saline. […]
The relative values compared to the sham group (% control) were calculated and are shown in Table 5, which show an antiallodynic effect of the test compounds in the SNL model in rats.

[3] = tested on: CFA-induced pain model; assay: Antiallodynic activity on Complete Freund's Adjuvant (CFA)-induced inflammatory pain model (von Frey); format: in vivo, Sprague-Dawley rats; conditions: Rattus norvegicus, ip, read-out: CFA model: effect (%) compared to control
Description: Male, Sprague-Dawley rats (200-220 g, Nara Bio, Korea) were habituated for 1 week before surgery and allowed free access to food and water throughout the experimentation. Room temperature and humidity were maintained at 24±2° C. and 50±10%, respectively.
CFA-induced inflammatory pain was induced by the procedure of Nagakura et al. (2003) and Gregory P. et al. (2010) with minor modifications. CFA (sigma, USA) was injected into the left plantar with a 100 ul volume under gaseous anesthesia with isoflurane and NO2 with a 4:4 flow ratio. Sham controls were injected with 100 ul of saline and preparation of the vehicle controls were identical to the group treated with compound, except for administration of vehicles without compound in the vehicle control group.
Tactile sensitivity (mechanical allodynia) was evaluated using von Frey monofilaments before and after treatment, and the animals were included in the study only if the withdrawal threshold value was less than 4 g. One week after surgery, CFA-infused animals (n=4˜6), sham-operated animals (n=12), and vehicle-operated animals (n=17) were tested for tactile sensitivity with von Frey monofilaments, with 3 trials for each animal. All animals were placed in a stainless steel mesh chamber and habituated for 30 min in the test cage. The tactile sensitivity for the ipsilateral hind paw was measured using the up-and-down method (Dixon, 1980) with seven von Frey monofilaments (0.4, 1, 2, 4, 6, 8, and 15 g) in 3 trials. The tactile sensitivity test was followed by Dixon's method (Dixon, 1980). The 50% paw withdrawal threshold for each paw was calculated using the following formula: [Xth] log=[vFr] log+ky where [vFr] is the force of the last von Frey used, k=0.2249 which is the average interval (in log units) between the von Frey monofilaments, and y is a value that depends upon the pattern of the withdrawal responses (Dixon, 1980).
The antiallodynic effect of the compound of Example was evaluated at the doses of 10, 30 and 60 mg/kg (n=4˜6), and were intraperitoneally administered in a volume of 5 ul/g by bodyweight in a vehicle of 30% (v/v) PEG. […]
The relative values compared to the sham (% control) were calculated and are shown in Table 4, which show an antiallodynic effect of the compound of examples in the CFA-induced pain model in rats.

[4] = tested on: Post operation-induced pain model; assay: Antiallodynic activity on post operative pain-induced pain model (von Frey); format: in vivo, Sprague-Dawley rats; conditions: rat, intraperitoneal, 18.9 mg/kg administered, time not given
Description: Male Sprague-Dawley rats (Orient Bio, Korea), 300-320 g, total of 201 rats were used (details in Table 7). Rats were habituated at least 3 days before surgery and free access to food and water (room temperature and humidity were maintained at […] and 50±10%, respectively). The process of performing the post-operation model's surgery was adapted from Brennan et al (1996). At first, rats with allodynia (threshold valueless than 8 g) were excluded in Pre-von Frey Test. During the post-operation surgery, rats were anesthetized under gaseous anesthesia with 2% isoflurane. Rats were laid face down on a plate fixed at 37° C. to prevent against hypothermia. The ipsilateral plantar aspect (left side) of the hind paw was prepared in a sterile manner with a 10% povidone-iodine solution. A longitudinal incision (1 cm) (FIG. 2-A) was made with a blade (number 11) through the skin and fascia of the ipsilateral plantar aspect of the foot, starting from 0.5 cm below the proximal edge of the heel and extending toward the toes. Rats' plantar muscles were elevated and incised longitudinally (FIG. 2-B). After hemostasis with gentle pressure, the skin was opposed with 2 mattress sutures (4-0 Dafilon) (FIG. 2-C). The wound site was covered with a 10% povidone-iodine solution gauze and injected with antibiotics (gentamicin, 8 mg/kg, ip). The sutures were removed under halothane anesthesia approximately 30 hours later, at the end of post-operative day 1.
After 2-3 days of recovery, rats with a good response (threshold less than 4 g) in Pre-von Frey Test were selected. According to this response, we made three groups with each group having equal average responses: Group 1, post-operation and drug treated; Group 2, post-operation and vehicle treated; Group 3, no post-operation and vehicle treated. In this study, Group 3 was the sham control (positive) group. The group 2 was used to check for possible failures to generate post-operative pain.
For efficacy measure, the threshold value of group C was assigned 100% efficacy, and the percentage of the threshold values of group A compared to group C (for each different dose level) were calculated as the efficacies. Base on these efficacy values, ED50 was calculated using log fitting. If there was no clear ED50, then we marked the percent efficacy at the highest tested dose or larger than highest tested dose.
For pain threshold test, all animals were placed in a stainless steel meshed chamber and habituated for 30 min in the test box. The tactile sensitivity of the ipsilateral hind paw was measured using the up-and-down method (Dixon, 1980) with seven von Frey monofilaments (0.4, 1, 2, 4, 6, 8, and 15 g) using 3 trials. The 50% paw withdrawal threshold for each paw was calculated using the following formula: [Xth] log=[vFr] log+ky, where [vFr] is the force of the last von Frey filament used, k=0.2249 which is the average interval (in log units) between the von Frey monofilaments, y which is a value that depends upon the pattern of withdrawal responses, and Xth which is the threshold value (Dixon, 1980).
Drugs were dissolved 30% PEG400 for example 60, 0.9% saline for Pregabalin, 20% Tween80 for Tylenol, 0.9% saline for Topiramate. These vehicles were selected depending on the compound's solubility. Intraperitoneal injection (5 μl/g) was done for all drugs.
The relative values compared to the sham (% control) were calculated and shown in Table 8, which show an antiallodynic effect of the compound of examples on Post operation-induced pain model in rats.

[5] = Rattus norvegicus, po, read-out: SNL model: effect (%) compared to control, rat, oral, 3.5 mg/kg administered, time not given

| Structure (SMILES) | melting point | response vs control in vivo at 3.5 mg/kg [2, 5] | further results |
| --- | --- | --- | --- |
| CC1(C)Oc2ccccc2C(COS(N)(=O)=O)O1 (racemic) [Example 3, (2,2-dimethyl-4H-benzo[d][1,3]dioxin-4-yl))methyl sulfamate] |  |  | Writh test: effect (%) compared to control ([1]; 80 mg/kg administered, 0.5 h): (63.9%, 0.5 h); response vs control in vivo at 3.5 mg/kg ([2]; rat, oral, 3.5 mg/kg administered, 0.5 h, read-out: SNL model: effect (%) compared to control): 35% |
| CC1(C)Oc2ccccc2[C@H](COS(N)(=O)=O)O1 [Example 1, ((R)-2,2-dimethyl-4H-benzo[d][1,3]dioxin-4-yl)methyl sulfamate] |  |  | ED50 ([1]; 0.25 h, read-out: Writh test: ED50): 56.8 mg/kg; ED50 ([2]; rat, oral, 1 h, read-out: SNL model: ED50): 9.9 mg/kg |
| CC1(C)Oc2ccc(Cl)cc2[C@@H](COS([NH-])(=O)=O)O1.[Na+] [Example 62, Sodium (S)-(((6-chloro-2,2-dimethyl-4H-benzo[d][1,3]dioxin-4-yl)methoxy)sulfonyl)amide] | 133.8 to 135.3 °C | 32.6% |  |
| CC1(C)Oc2ccc(Cl)cc2C(COS([NH-])(=O)=O)O1.[Na+] (stereo not shown) [Example 63, Sodium (((6-chloro-2,2-dimethyl-4H-benzo[d][1,3]dioxin-4-yl)methoxy)sulfonyl)amide] | 129.3 to 132.3 °C | 32.9% | response vs control in vivo at 25 mg/kg [3]: 16.9%; Post Operation: effect (%) compared to control [4]: (26.6%) |
| [NH-]S(=O)(=O)OC[C@@H]1OC2(CCCC2)Oc2ccccc21.[Na+] [Example 64, Sodium (R)-(((4H-spiro[benzo[d][1,3]dioxine-2,1′-cyclopentan]-4-yl)methoxy)sulfonyl)amide] | 132.9 to 134.9 °C | 22.5% |  |
| [NH-]S(=O)(=O)OCC1OC2(CCCC2)Oc2ccccc21.[Na+] (stereo not shown) [Example 66, Sodium (((4H-spiro[benzo[d][1,3]dioxine-2,1′-cylcopentan]-4-yl)methoxy)sulfonyl)amide] | 145.5 to 148.9 °C |  | response vs control in vivo at 3.5 mg/kg ([2]; Rattus norvegicus, po, 0.5 h, read-out: SNL model: effect (%) compared to control, rat, oral, 3.5 mg/kg administered, 0.5 h): 59.5% |
| [NH-]S(=O)(=O)OCC1OC2(CCCC2)Oc2ccc(Cl)cc21.[Na+] (stereo not shown) [Example 67, Sodium ((6-chloro-(4H-spiro[benzo[d][1,3]dioxine-2,1′-cyclopentan]-4-yl)methoxy)sulfonyl)amide] | 68.6 to 72.3 °C | 49.1% |  |
